Experiments:
[1] = 25I-NBOMe distribution in rat blood plasma and brain regions (LC–MS/MS, ESI ion trap); type: in vivo
Experimental: (§1) Animals received single or multiple (once per day for seven days) subcutaneous injections of 25I-NBOMe dissolved in 0.9% NaCl at a dose of 0.3 mg/kg/2 ml. The control group was treated with 0.9% NaCl solution in the same way. All procedures were performed 72 h after the last injection. The time point of 72 h was chosen due to the possible generation of neurotoxicity via oxidative stress caused by reactive oxygen species (ROS). Exceptionally, for initial 25I-NBOMe brain distribution studies, rats received the drug in the dose of 1 and 10 mg/kg and were sacrificed 15 min after the drug administration. The rat blood plasma and brain tissues were collected immediately after rats’ decapitation. LSD (0.05 mg/kg, ip) was given daily for 7 days in a volume of 1 ml/kg, while MDMA 5 mg/kg, ip was injected in a volume of 2 ml/kg every second day (overall 4 injections).
The presence of 25I-NBOMe in the rat brain regions and blood serum was analyzed with electrospray ion trap mass spectrometry (Amazon SL from Bruker Daltonics, Bremen, Germany). At 72 h after the last injection with 25I-NBOMe or 15 min after injection of single low and high (1 and 10 mg/kg) dose, animals were sacrificed by decapitation. Brains were removed and the frontal cortex, striatum, nucleus accumbens, and hippocampus were dissected. The blood samples were also collected after 25I-NBOMe injections. Tissue samples were homogenized in an ice-cold 0.1 M HClO4, and were centrifuged at 10,000×g for 10 min at 4 °C. Blood was incubated for 30 min and then centrifuged for 15 min, 3000 rpm at 4 °C. The collected blood serum and tissue supernatants were frozen at − 80 °C until the time of mass spectrometry analysis. The value pH of samples was about 2. To purify the samples, solid phase extraction (SPE) columns MacroSpin Columns Silica C18 (The Nest Group, Inc., Southborough, USA) were used. Initially, columns were activated with 100% methanol (MeOH) solution by double centrifugation at 110×g for 1 min. Next, to remove MeOH, 2% acetonitrile (ACN) with 0.1% HCOOH was used. Subsequently, the columns were washed twice with the blood and tissue samples. To remove adenosine-5'-diphosphate (ADP) that has the same precursor ion as 25I-NBOMe the columns were washed twice with 2% ACN. Finally, to wash out 25I-NBOMe, the column was washed twice with 80% ACN with 0.1% HCOOH. Samples were left to dry in SpeedVac Vacuum Concentrator (Labconco, Kansas City, USA) overnight. The following day, samples were dissolved in 10% ACN with 0.1% HCOOH and injected to the LC–MS/MS system. The nanoLC-MS/MS analysis used to separate compounds was performed using the Ultimate 3000 nanocapillary chromatography system (Polygen, Gliwice, Poland). The separations were performed using a PepMap column (15 cm long, 75 μm ID, C18, 3 μm particle size, 100 Å pore size, Thermo-Scientific). The gradient was formed using 0.1% HCOOH in H2O (solvent A) and 0.1% HCOOH in ACN (solvent B), at a flow rate of 300 nl/min. The system was controlled by the Hystar software (Bruker Daltonics). A gradient was produced from 5 to 80% B in 100 min, then kept at 90% of phase B for 10 min. The mass spectrometry detection was performed in positive ion mode by electrospray ion trap mass spectrometry (Amazon SL from Bruker Daltonics, Bremen, Germany). The retention time of 25I-NBOMe was about 30.3 min. The acquired mass spectra were analyzed using the Bruker Data Analysis v. 4.0 software (Bruker Daltonics). The data presented in tables are calculated as intensity per 1 mg of wet tissue or 1 ml of blood serum, while mass spectra represent the real intensity of 25I-NBOMe-precursor ion from tissue samples with different mass.

apoptosis = assay: TUNEL assay for apoptotic signal in brain slices; type: in vivo, rat; settings: frontal cortex, anterior and posterior hippocampus; acute or chronic (× 7) 0.3 mg/kg; 72 h after treatment; qualitative
Experimental: as §1
As described above, animals were perfused transcardially and brains were fixed overnight in 4% PFA, then gradually dehydrated and stored in 70% ethanol (EtOH). Paraffin-embedded brain tissue was sectioned on a microtome (Leica, RM45) for 7-µm-thick sections. […] The apoptotic signal was assessed using Click-iT™ Plus TUNEL Assay for in situ apoptosis detection with Alexa Fluor™ 488 picolyl azide dye. […] Stained slides were examined under a fluorescence microscope (Nikon Eclipse50i, Japan) equipped with a camera and NIS Elements software.

QT interval = settings: electrocardiography in rats; cited from earlier work

COc1cc(CCNCc2ccccc2OC)c(OC)cc1I [25I-NBOMe, 4-Iodo-2,5-dimethoxy-N-(2-methoxybenzyl)phenethylamine]
Accumulation in brain tissue after repeated administration ([1]; 0.3 mg/kg × 7 vs single dose, 72 h): caused drug accumulation in the brain tissue
Intensity of the 25I-NBOMe precursor ion (~ 428 m/z) ([1]; blood plasma, single 1 mg/kg, 15 min after injection, per 1 ml of blood serum, one sample preparation): 9.24 × 10^4 a.u.
Intensity of the 25I-NBOMe precursor ion (~ 428 m/z) ([1]; blood plasma, single 10 mg/kg, 15 min after injection, per 1 ml of blood serum, one sample preparation): 5.44 × 10^5 a.u.
Crossing of the blood–brain barrier (BBB) ([1]; detected in blood serum and several brain regions 15 min after injection): easily crosses the blood–brain barrier (BBB)
Intensity of the 25I-NBOMe precursor ion (~ 428 m/z) ([1]; frontal cortex, chronic 0.3 mg/kg × 7 sc, 72 h after last injection, per 1 mg of wet tissue): 2.93 × 10^4 a.u.
Intensity of the 25I-NBOMe precursor ion (~ 428 m/z) ([1]; frontal cortex, single 0.3 mg/kg sc, 72 h after injection, per 1 mg of wet tissue): 2.25 × 10^3 a.u.
Intensity of the 25I-NBOMe precursor ion (~ 428 m/z) ([1]; frontal cortex, single 1 mg/kg, 15 min after injection, per 1 mg of wet tissue): 2.94 × 10^4 a.u.
Intensity of the 25I-NBOMe precursor ion (~ 428 m/z) ([1]; frontal cortex, single 10 mg/kg, 15 min after injection, per 1 mg of wet tissue): 4.36 × 10^5 a.u.
Intensity of the 25I-NBOMe precursor ion (~ 428 m/z) ([1]; hippocampus, chronic 0.3 mg/kg × 7 sc, 72 h after last injection, per 1 mg of wet tissue): 1.72 × 10^4 a.u.
Intensity of the 25I-NBOMe precursor ion (~ 428 m/z) ([1]; hippocampus, single 0.3 mg/kg sc, 72 h after injection, per 1 mg of wet tissue): 6.89 × 10^3 a.u.
Intensity of the 25I-NBOMe precursor ion (~ 428 m/z) ([1]; hippocampus, single 1 mg/kg, 15 min after injection, per 1 mg of wet tissue): 1.60 × 10^4 a.u.
Intensity of the 25I-NBOMe precursor ion (~ 428 m/z) ([1]; hippocampus, single 10 mg/kg, 15 min after injection, per 1 mg of wet tissue): 2.71 × 10^5 a.u.
Intensity of the 25I-NBOMe precursor ion (~ 428 m/z) ([1]; nucleus accumbens, chronic 0.3 mg/kg × 7 sc, 72 h after last injection, per 1 mg of wet tissue): 9.00 × 10^3 a.u.
Intensity of the 25I-NBOMe precursor ion (~ 428 m/z) ([1]; nucleus accumbens, single 0.3 mg/kg sc, 72 h after injection, per 1 mg of wet tissue): 3.85 × 10^3 a.u.
Intensity of the 25I-NBOMe precursor ion (~ 428 m/z) ([1]; nucleus accumbens, single 1 mg/kg, 15 min after injection, per 1 mg of wet tissue): 2.32 × 10^7 a.u.
Intensity of the 25I-NBOMe precursor ion (~ 428 m/z) ([1]; nucleus accumbens, single 10 mg/kg, 15 min after injection, per 1 mg of wet tissue): 7.15 × 10^7 a.u.
Intensity of the 25I-NBOMe precursor ion (~ 428 m/z) ([1]; striatum, chronic 0.3 mg/kg × 7 sc, 72 h after last injection, per 1 mg of wet tissue): 2.12 × 10^3 a.u.
Intensity of the 25I-NBOMe precursor ion (~ 428 m/z) ([1]; striatum, single 0.3 mg/kg sc, 72 h after injection, per 1 mg of wet tissue): 1.61 × 10^3 a.u.
Intensity of the 25I-NBOMe precursor ion (~ 428 m/z) ([1]; striatum, single 1 mg/kg, 15 min after injection, per 1 mg of wet tissue): 5.97 × 10^4 a.u.
Intensity of the 25I-NBOMe precursor ion (~ 428 m/z) ([1]; striatum, single 10 mg/kg, 15 min after injection, per 1 mg of wet tissue): 6.95 × 10^5 a.u.
Apoptotic signal (TUNEL) (apoptosis): did not indicate apoptotic signal
QT interval (QT interval): prolonged
